Source: patent US5352659A, “Endothelin analogs and uses thereof” (Takeda Chemical Industries, priority 1991, dated 1994)
Bridge positions count the residues as written; N and C are the ends. Square brackets hold non-standard residues; d marks the D form. Peptide text beside a SMILES is read from it. Mpa = O=C(O)CCS

Tests used:
[1] = tested on: porcine coronary smooth muscles
Protocol: (1) Assay of Constrictor Suppressing Activity on Porcine Coronary Smooth Muscles
(§1) Spiral strips 2 mm×15 mm prepared from the coronary right ramus circumflexus from which the adventitial connective tissues and the endothelial cells were removed were set to 4 ml organ baths. The tension of each strip was detected by a force displacement transducer UL-10GR (Minebea), and recorded by a polygraph (NEC Sanei). The organ baths were maintained at 37° C., and filled with a Krebs-Henseleit solution (composition: 118 mM NaCl, 4.7 mM KCl, 2.5 mM CaCl2, 1.2 mM KH2 PO4, 25.0 mM NaHCO3, 1.2 mM MgSO4, 10.0 mM glucose) gassed with 95% O2 and 5% CO2.
(§2) A tension of 1.25 to 1.5 g was applied to each of the strips, followed by equilibration for 1.5 hours. 60 mM KCl was repeatedly applied thereto at intervals of 30 minutes until the constriction response became constant. After additional equilibration for 1.5 hours, a sample for assay was given thereto. The constriction of the strips was normalized by the constriction response of the individual strips to 60 mM KCl and statistically processed.
pA2 is a negative logarithm value of a molar concentration of a competitive antagonist necessary for shifting in parallel a dose response curve for an active drug (for example, ET-1) alone to the high dose side by a factor of 2.

[2] = tested on: porcine coronary artery; test: Constrictor activity on porcine coronary smooth muscles; settings: for Maximum constriction (% 60 mM KCl): porcine coronary artery strips, normalized to 60 mM KCl response; for Constrictor activity (specific activity): relative to ET-1 = 100, porcine coronary artery
Protocol: as §1, §2
(2) As to the antagonistic property of the peptides of the present invention to endothelin, the affinity for an endothelin receptor and the constrictor activity on porcine coronary smooth muscles (according to the method described in (1) described above) were assayed. The affinity for the receptor was assayed by the following method.

[3] = tested on: endothelin receptor; test: Assay of affinity for receptor (inhibition of 125I-ET-1 binding to porcine myocardial membrane fraction); settings: relative to ET-1 = 100
Protocol: Assay of Affinity for Receptor
A membrane fraction prepared from the porcine heart was diluted to 0.15 mg/ml by using a buffer solution for assay, and 100 μl of the resulting suspension of the membrane fraction was poured into each assay tube to use for assay. To this suspension of the membrane fraction was added 2 μl of 5 nM ^125 I labeled endothelin-1 solution. Further, 3 μl of a test peptide solution was added thereto, followed by incubation at a temperature of 25° C. for 1 hour. Then, the resulting suspension was diluted with 900 μl of the buffer solution for assay cooled with ice, and thereafter separated into a supernatant and a precipitate by centrifugation at 12,000×g for 10 minutes. Cell membranes and an endothelin receptor embedded therein were contained in the precipitate, and radioactive iodine-labeled endothelin combined with the receptor was also recovered in the precipitate. Accordingly, the amount of radioactive iodine-labeled endothelin combined with the endothelin receptor was determined by measuring the amount of radioactive iodine contained in the precipitate with a gamma-ray counter.

Row | Compound | Receptor binding activity (specific activity) [3] | Relative potency [1] | pA2 [1] | Maximum constriction (% 60 mM KCl) [2] | Constrictor activity (specific activity) [2]
1 | CC[C@H](C)[C@H](NC(=O)[C@H](CC(C)C)NC(=O)[C@@H](NC(=O)[C@H](CC(C)C)NC(=O)[C@H](Cc1c[nH]cn1)NC(=O)[C@@H]1CSSC[C@H](N)C(=O)N[C@@H](CO)C(=O)N[C@H]2CSSC[C@H](NC(=O)[C@H](CCC(=O)O)NC(=O)[C@H](C)NC(=O)[C@H](CC(=O)O)NC(=O)[C@H](CCSC)NC(=O)[C@H](CC(C)C)NC(=O)[C@H](CO)NC(=O)[C@H](CO)NC2=O)C(=O)N[C@@H](C(C)C)C(=O)N[C@@H](Cc2ccc(O)cc2)C(=O)N[C@@H](Cc2ccccc2)C(=O)N1)[C@@H](C)O)C(=O)N[C@@H](Cc1c[nH]c2ccccc12)C(=O)O [Example 10, [Ala^9, Thr^18, Leu^19]-ET-1] (H-CSCSSLMDAECVYFCHLTLIW-OH; disulfide 1-15, 3-11) | 16 | 1.6 | 5.9 | 4 % 60 mM KCl | < 0.1
2 | CC[C@H](C)[C@H](NC(=O)[C@H](CC(C)C)NC(=O)[C@@H](NC(=O)[C@H](CC(C)C)NC(=O)[C@H](Cc1c[nH]cn1)NC(=O)[C@@H]1CSSCCC(=O)N[C@@H](CO)C(=O)N[C@H]2CSSC[C@H](NC(=O)[C@H](CCC(=O)O)NC(=O)[C@H](CCCCN)NC(=O)[C@H](CC(=O)O)NC(=O)[C@H](CCSC)NC(=O)[C@H](CC(C)C)NC(=O)[C@H](CO)NC(=O)[C@H](CO)NC2=O)C(=O)N[C@@H](C(C)C)C(=O)N[C@@H](Cc2ccc(O)cc2)C(=O)N[C@@H](Cc2ccccc2)C(=O)N1)[C@@H](C)O)C(=O)N[C@@H](Cc1c[nH]c2ccccc12)C(=O)O [Example 11, [Mpr^1, Thr^18, Leu^19]-ET-1] ([Mpa]SCSSLMDKECVYFCHLTLIW-OH; disulfide 1-15, 3-11) | 16 | 6 | 6.5 | 1 % 60 mM KCl | < 0.1
3 | CC[C@H](C)[C@H](NC(=O)[C@H](CC(C)C)NC(=O)[C@@H](NC(=O)[C@H](CC(C)C)NC(=O)[C@H](Cc1c[nH]cn1)NC(=O)[C@@H]1CSSC[C@H](N)C(=O)N[C@@H](C)C(=O)N[C@H]2CSSC[C@H](NC(=O)[C@H](CCC(=O)O)NC(=O)[C@H](CCCCN)NC(=O)[C@H](CC(=O)O)NC(=O)[C@H](CCSC)NC(=O)[C@H](CC(C)C)NC(=O)[C@H](CO)NC(=O)[C@H](CO)NC2=O)C(=O)N[C@@H](C(C)C)C(=O)N[C@@H](Cc2ccc(O)cc2)C(=O)N[C@@H](Cc2ccccc2)C(=O)N1)[C@@H](C)O)C(=O)N[C@@H](Cc1c[nH]c2ccccc12)C(=O)O [Example 12, [Ala^2, Thr^18, Leu^19]-ET-1] (H-CACSSLMDKECVYFCHLTLIW-OH; disulfide 1-15, 3-11) | 32 | – | 6.7 | 5 % 60 mM KCl | < 0.1
4 | CC[C@H](C)[C@H](NC(=O)[C@H](CC(C)C)NC(=O)[C@@H](NC(=O)[C@H](CC(C)C)NC(=O)[C@H](Cc1c[nH]cn1)NC(=O)[C@@H]1CSSC[C@H](N)C(=O)N[C@@H](CO)C(=O)N[C@H]2CSSC[C@H](NC(=O)[C@H](CCC(=O)O)NC(=O)[C@H](CCCCN)NC(=O)[C@H](CC(=O)O)NC(=O)[C@H](CCSC)NC(=O)[C@H](CC(C)C)NC(=O)[C@H](CO)NC(=O)[C@H](C)NC2=O)C(=O)N[C@@H](C(C)C)C(=O)N[C@@H](Cc2ccc(O)cc2)C(=O)N[C@@H](Cc2ccccc2)C(=O)N1)[C@@H](C)O)C(=O)N[C@@H](Cc1c[nH]c2ccccc12)C(=O)O [Example 13, [Ala^4, Thr^18, Leu^19]-ET-1] (H-CSCASLMDKECVYFCHLTLIW-OH; disulfide 1-15, 3-11) | 57 | – | 6.9 | 6 % 60 mM KCl | < 0.1
5 | CC[C@H](C)[C@H](NC(=O)[C@H](CC(C)C)NC(=O)[C@@H](NC(=O)[C@H](CC(C)C)NC(=O)[C@H](Cc1c[nH]cn1)NC(=O)[C@@H]1CSSC[C@H](N)C(=O)N[C@@H](CO)C(=O)N[C@H]2CSSC[C@H](NC(=O)[C@H](CCC(=O)O)NC(=O)[C@H](CCCCN)NC(=O)[C@H](CC(=O)O)NC(=O)[C@H](CCSC)NC(=O)[C@H](CC(C)C)NC(=O)[C@H](C)NC(=O)[C@H](CO)NC2=O)C(=O)N[C@@H](C(C)C)C(=O)N[C@@H](Cc2ccc(O)cc2)C(=O)N[C@@H](Cc2ccccc2)C(=O)N1)[C@@H](C)O)C(=O)N[C@@H](Cc1c[nH]c2ccccc12)C(=O)O [Example 14, [Ala^5, Thr^18, Leu^19]-ET-1] (H-CSCSALMDKECVYFCHLTLIW-OH; disulfide 1-15, 3-11) | 8.6 | 0.6 | 5.5 | 6 % 60 mM KCl | < 0.1
6 | CC[C@H](C)[C@H](NC(=O)[C@H](CC(C)C)NC(=O)[C@@H](NC(=O)[C@H](CC(C)C)NC(=O)[C@H](Cc1c[nH]cn1)NC(=O)[C@@H]1CSSC[C@H](N)C(=O)N[C@@H](CO)C(=O)N[C@H]2CSSC[C@H](NC(=O)[C@H](CCC(=O)O)NC(=O)[C@H](CCCCN)NC(=O)[C@H](CC(=O)O)NC(=O)[C@H](C)NC(=O)[C@H](CC(C)C)NC(=O)[C@H](CO)NC(=O)[C@H](CO)NC2=O)C(=O)N[C@@H](C(C)C)C(=O)N[C@@H](Cc2ccc(O)cc2)C(=O)N[C@@H](Cc2ccccc2)C(=O)N1)[C@@H](C)O)C(=O)N[C@@H](Cc1c[nH]c2ccccc12)C(=O)O [Example 16, [Ala^7, Thr^18, Leu^19]-ET-1] (H-CSCSSLADKECVYFCHLTLIW-OH; disulfide 1-15, 3-11) | 62 | – | 7.2 | 9 % 60 mM KCl | < 0.1

Now from value to molecule, other results behind:

Row | Receptor binding activity (specific activity) [3] | Compound | Relative potency [1] | pA2 [1] | Maximum constriction (% 60 mM KCl) [2] | Constrictor activity (specific activity) [2]
7 | 15 | CC[C@H](C)[C@H](NC(=O)[C@H](CC(C)C)NC(=O)[C@H](CO)NC(=O)[C@H](CC(C)C)NC(=O)[C@H](Cc1c[nH]cn1)NC(=O)[C@@H]1CSSC[C@H](N)C(=O)N[C@@H](CO)C(=O)N[C@H]2CSSC[C@H](NC(=O)[C@H](CCC(=O)O)NC(=O)[C@H](CCCCN)NC(=O)[C@H](CC(=O)O)NC(=O)[C@H](CCSC)NC(=O)[C@H](CC(C)C)NC(=O)[C@H](CO)NC(=O)[C@H](CO)NC2=O)C(=O)N[C@@H](C(C)C)C(=O)N[C@@H](Cc2ccc(O)cc2)C(=O)N[C@@H](Cc2ccccc2)C(=O)N1)C(=O)N[C@@H](Cc1c[nH]c2ccccc12)C(=O)O [Example 6, [Ser^18, Leu^19]-ET-1] (H-CSCSSLMDKECVYFCHLSLIW-OH; disulfide 1-15, 3-11) | 63 | 7.5 | 1 % 60 mM KCl | < 0.1
8 | 9.5 | CC[C@H](C)[C@H](NC(=O)[C@H](CC(C)C)NC(=O)CNC(=O)[C@H](CC(C)C)NC(=O)[C@H](Cc1c[nH]cn1)NC(=O)[C@@H]1CSSC[C@H](N)C(=O)N[C@@H](CO)C(=O)N[C@H]2CSSC[C@H](NC(=O)[C@H](CCC(=O)O)NC(=O)[C@H](CCCCN)NC(=O)[C@H](CC(=O)O)NC(=O)[C@H](CCSC)NC(=O)[C@H](CC(C)C)NC(=O)[C@H](CO)NC(=O)[C@H](CO)NC2=O)C(=O)N[C@@H](C(C)C)C(=O)N[C@@H](Cc2ccc(O)cc2)C(=O)N[C@@H](Cc2ccccc2)C(=O)N1)C(=O)N[C@@H](Cc1c[nH]c2ccccc12)C(=O)O [Example 8, [Gly^18, Leu^19]-ET-1] (H-CSCSSLMDKECVYFCHLGLIW-OH; disulfide 1-15, 3-11) | 10 | 6.7 | 14 % 60 mM KCl | < 0.1
9 | 11 | CC[C@H](C)[C@H](NC(=O)[C@H](CC(C)C)NC(=O)[C@@H](NC(=O)[C@H](CC(C)C)NC(=O)[C@H](Cc1c[nH]cn1)NC(=O)[C@@H]1CSSC[C@H](N)C(=O)N[C@@H](CO)C(=O)N[C@H]2CSSC[C@H](NC(=O)[C@H](CCC(=O)O)NC(=O)[C@H](CCCCN)NC(=O)[C@H](CC(=O)O)NC(=O)[C@H](CCSC)NC(=O)[C@H](C)NC(=O)[C@H](CO)NC(=O)[C@H](CO)NC2=O)C(=O)N[C@@H](C(C)C)C(=O)N[C@@H](Cc2ccc(O)cc2)C(=O)N[C@@H](Cc2ccccc2)C(=O)N1)[C@@H](C)O)C(=O)N[C@@H](Cc1c[nH]c2ccccc12)C(=O)O [Example 15, [Ala^6, Thr^18, Leu^19]-ET-1] (H-CSCSSAMDKECVYFCHLTLIW-OH; disulfide 1-15, 3-11) | 6 | 6.5 | 7 % 60 mM KCl | < 0.1
